Test results as given in patent US9212210B2, “Akt activity specifically inhibiting polypeptide” (Japan Science and Technology Agency, priority 2003, dated 2015).

Columns and labels:
Akt kinase = assay: Binding test by co-immunoprecipitation assay; settings: lysate of human 293 cells overexpressing AKT kinase, incubated around 2 hours, western blotting
Protocol: In this method, AKT kinase was overexpressed in human 293 cells, and the harvested cell lysates was incubated with 10/24 peptide (NH2-AVTDHPDRLWAWEKF-COOH) (SEQ ID NO: 1) for around 2 hours. Further, the treated cell lysates were added agarose beads bound to the specific antibody against an epitope that was fused with Akt, and co-incubated for 2-3 hours. Then, molecules adhered in the cell lysates were immunoprecipitated with agarose beads bound to this antibody, and examined the binding to Akt kinase by using western blotting with specific antibody.

Recombinant Akt protein = assay: In vitro Akt kinase assay with GSK as substrate; format: biochemical; settings: 200 μM peptide, reacted 2 hours, phosphorylation 4 minutes at 30° C., western blotting
Protocol: With the use of the GSK as substrate Akt kinase assay was performed, and inhibition test for Akt activation with 10/24 peptide was performed.
In vitro Akt kinase assay was performed by using kit (Cell Signaling, #9840). Recombinant Akt protein extracted from mammalian cells was mixed with 200 μM concentrations of peptide, and reacted for 2 hours. Phosphorylation was performed for 4 minutes at 30° C. After analyzing the reaction mixture on SDS gels, GSK phosphorylation was determined by western blotting.

[1] = tested on: Akt in mouse QrSP-11 fibrosarcoma cells; assay: Inhibition of Akt phosphorylation activation in PDGF-stimulated QrSP-11 cells (western blotting); format: cell-based; settings: 50 mM peptide for 16 hours, PDGF stimulation
Protocol: Inhibition effect on Akt activation of AKT phosphorylation (serine 473 residue, threonine 308 residue) of 10/24 peptide and control peptide in mouse QrSP-11 fibrosarcoma cells were examined.
QrSP-11 cells were mixed with 50 mM concentrations of peptide for 16 hours. Then the mixture was stimulated with PDGF (PDGF-AB, Sigma, 3226). The cells were lysed in the presence of phosphatase inhibitor, analyzed on SDS gels, and western blotting was performed by ECL (Amersham) with the use of various antibodies (Cell Signaling; anti-Akt #9272, anti-pThr 308 #9275L, and anti-pSer 473 #9271L). As shown in the figure, in the 10/24 peptide treated cells, phosphorylations of both serine 473 and threonine 308 were inhibited as shown at the right in the figure. That is, phosphorylation inhibition caused by 10/24 peptide was indicated by diluting the black bands at the right compared to the second and forth rows from the left in the figure.

For “NH2-AVTDHPDRLWAWEKF-COOH (H-AVTDHPDRLWAWEKF-OH; listed as Homo sapiens) [10/24 peptide, amino acid residue 10-24 of human TCL1]”, the “binding to Akt kinase” value (Akt kinase) was “specifically binds”, the “phosphorylation potency of Akt for GSK peptide (Akt kinase activity)” value (Recombinant Akt protein) was “effectively inhibited” and the “phosphorylation of Akt serine 473” value [1] was “inhibited”. For the same substance, the “phosphorylation of Akt threonine 308” value [1] was “inhibited”.
